Experiments:
[1] = test system: MRC-5 fibroblasts; assay: MTT cytotoxicity assay on non-cancerous MRC-5 fibroblasts; format: cell-based; settings: 72 h; for primary growth inhibitory screen, cell viability, MRC-5 / effect on non-cancerous fibroblasts: 2.5 µM; for primary growth inhibitory screen, cell viability, MRC-5 / IC50: MTT; for primary growth inhibitory screen, cell viability, MRC-5: mean±SD, untreated control about 100; for effect on non-cancerous fibroblasts: based on the heat map; for IC50: Homo sapiens, MRC5, compounds 1-7 µM, mean ± SD, read-out: IC50 on MRC-5
Method in brief: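 Cells seeded at 5000/well overnight, then exposed to compounds 72 h at 37 °C, 5% CO2; viability by MTT (0.5 mg/mL, 1 h), OD 570 nm. Primary screen at 2.5 µM; IC50 from dose–response curves, three independent experiments.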

[2] = test system: PC-3 cells; assay: MTT cytotoxicity assay on PC-3 prostate cancer cells; format: cell-based; settings: for primary growth inhibitory screen, cell viability, PC-3: 2.5 µM, 72 h, mean±SD, untreated control about 100; for IC50: Homo sapiens, PC-3, 72 h, compounds 1-7 µM, mean ± SD, read-out: IC50 on PC-3
[3] = test system: DU145 cells; assay: MTT cytotoxicity assay on DU145 prostate cancer cells; format: cell-based; settings: for primary growth inhibitory screen, cell viability, DU145: 2.5 µM, 72 h, mean±SD, untreated control about 100; for IC50: Homo sapiens, DU-145, 72 h, compounds 1-7 µM, mean ± SD, read-out: IC50 on DU145
[4] = test system: MCF-7 cells; assay: MTT cytotoxicity assay on MCF-7 cells; format: cell-based; settings: for primary growth inhibitory screen, cell viability, MCF-7: 2.5 µM, 72 h, mean±SD, untreated control about 100; for IC50: Homo sapiens, MCF7, 72 h, compounds 1-7 µM, mean ± SD, read-out: IC50 on MCF-7
[5] = test system: HeLa cells; assay: MTT cytotoxicity assay on HeLa cells; format: cell-based; settings: 72 h; for primary growth inhibitory screen, cell viability, HeLa: 2.5 µM, mean±SD, untreated control about 100; for IC50: Homo sapiens, HeLa, compounds 1-7 µM, mean ± SD, read-out: IC50 on HeLa

SMILES	primary growth inhibitory screen, cell viability, MRC-5 [1]	effect on non-cancerous fibroblasts [1]	IC50 [1] [µM]	primary growth inhibitory screen, cell viability, PC-3 [2]	IC50 [2] [µM]	primary growth inhibitory screen, cell viability, DU145 [3]	IC50 [3] [µM]	primary growth inhibitory screen, cell viability, MCF-7 [4]	IC50 [4] [µM]	primary growth inhibitory screen, cell viability, HeLa [5]	IC50 [5] [µM]	melting point [°C]
C[C@]12CC[C@@H]3c4cc(-c5nn(-c6ccccc6)cc5C=O)c(O)cc4CC[C@H]3[C@@H]1CC[C@@H]2O [Compound 8a, 2-(4′-Formyl-1′-phenyl-1′H-pyrazol-3′-yl)-estra-1,3,5(10)-trien-3,17β-diol]	99.9±3.3	no or very mild effect	5.12 ± 1	54.9±3.0	3.05 ± 1	108.8±4.1	6.46 ± 1	100.9±4.8	5.03 ± 1	100.4±1.6	4.09 ± 1	172 to 174
CC(=O)O[C@H]1CC[C@H]2[C@@H]3CCc4cc(O)c(-c5nn(-c6ccc(Cl)cc6)cc5C=O)cc4[C@H]3CC[C@]12C [Compound 7c, 2-(1′-(4″-Chlorophenyl)-4′-formyl-1′H-pyrazol-3′-yl)-estra-1,3,5(10)-triene-3,17β-diol-17-acetate]	78.9±4.3	no or very mild effect	4.76 ± 1.1	36.0±4.5	2.14 ± 1.1	70.4±3.6	3.37 ± 1	57.4±10.6	1.99 ± 1.1	94.1±1.9	5.32 ± 1.1	268 to 270
O=Cc1cn(-c2ccccc2)nc1-c1cc2c(cc1O)CCCC2 [Compound 17a, 3′-(3-Hydroxy-5,6,7,8-tetrahydronaphthalen-2-yl)-1′-phenyl-1′H-pyrazole-4′-carbaldehyde]	≥ 100±7.3	no or very mild effect	6.26 ± 1.1	71.0±20.9	4.3 ± 1	≥ 100±6.4	5.62 ± 1	≥ 100±2.3	5.17 ± 1	53.7±3.3	2.2 ± 1.1	137 to 138
CC(=O)O[C@H]1CC[C@H]2[C@@H]3CCc4cc5oc(=O)c6cn(-c7ccc(C)cc7)nc6c5cc4[C@H]3CC[C@]12C [Compound 9b]	≥ 100±4.2	–	–	86.2±2.4	–	≥ 100±4.5	–	≥ 100±0.8	–	68.0±0.4	–	264 to 266
CC(=O)O[C@H]1CC[C@H]2[C@@H]3CCc4cc5oc(=O)c6cn(-c7ccccc7)nc6c5cc4[C@H]3CC[C@]12C [Compound 9a]	≥ 100±8.1	–	6.41 ± 1.1	82.0±2.2	4.22 ± 1	≥ 100±5.8	5.66 ± 1	≥ 100±2.4	4.94 ± 1	73.8±0.6	1.55 ± 1	198 to 200

— publication PMC7571145, “Multistep Synthesis and In Vitro Anticancer Evaluation of 2-Pyrazolyl-Estradiol Derivatives, Pyrazolocoumarin-Estradiol Hybrids and Analogous Compounds” (Molecules, 2020)
